Columns and labels:
Assay type in all cases: in vivo
[1] = tested on: Beet Armyworm (Spodoptera exigua, LAPHEG) second instar larvae; assay: Bioassay on Beet Armyworm (BAW), 128-well diet tray assay; details: Beet Armyworm, Table ABC Biological Results, read-out: BAW rating
Description: (§1) Certain molecules disclosed in this document were tested against BAW, CEW, and CL using procedures described in the following examples. In the reporting of the results, the “BAW, CEW, & CL Rating Table” was used (See Table Section).
Bioassays on BAW were conducted using a 128-well diet tray assay. one to five second instar BAW larvae were placed in each well (3 mL) of the diet tray that had been previously filled with 1 mL of artificial diet to which 50 μg/cm^2 of the test molecule (dissolved in 50 μL of 90:10 acetone-water mixture) had been applied (to each of eight wells) and then allowed to dry. Trays were covered with a clear self-adhesive cover and held at 25° C., 14:10 light-dark for five to seven days. Percent mortality was recorded for the larvae in each well; activity in the eight wells was then averaged. The results are indicated in the table entitled “Table ABC: Biological Results” (See Table Section).
(§2) Bioassays on BAW and CL were conducted according to the procedures outlined in Example A: Bioassays on Beet Armyworm (“BAW”) and Cabbage Looper (“CL”) using the indicated concentrations.

[2] = tested on: Yellow Fever Mosquito (Aedes aegypti, AEDSAE) larvae; assay: Bioassay on Yellow Fever Mosquito (YFM), 96-well plate larval assay; details: Table ABC Biological Results
Description: Certain molecules disclosed in this document were tested against YFM using procedures described in the following paragraph. In the reporting of the results, the “GPA & YFM Rating Table” was used (See Table Section).
Master plates containing 400 μg of a molecule dissolved in 100 μL of dimethyl sulfoxide (DMSO) (equivalent to a 4000 ppm solution) are used. A master plate of assembled molecules contains 15 μL per well. To this plate, 135 μL of a 90:10 water:acetone mixture is added to each well. A robot (Biomek® NXP Laboratory Automation Workstation) is programmed to dispense 15 μL aspirations from the master plate into an empty 96-well shallow plate (“daughter” plate). There are 6 reps (“daughter” plates) created per master. The created daughter plates are then immediately infested with YFM larvae.
The day before plates are to be treated, mosquito eggs are placed in Millipore water containing liver powder to begin hatching (4 g. into 400 mL). After the daughter plates are created using the robot, they are infested with 220 μL of the liver powder/larval mosquito mixture (about 1 day-old larvae). After plates are infested with mosquito larvae, a non-evaporative lid is used to cover the plate to reduce drying. Plates are held at room temperature for 3 days prior to grading. After 3 days, each well is observed and scored based on mortality. The results are indicated in the table entitled “Table ABC: Biological Results” (See Table Section).

[3] = tested on: Cabbage Looper (Trichoplusia ni, TRIPNI) second instar larvae; assay: Bioassay on Cabbage Looper (CL), 128-well diet tray assay; details: Cabbage Looper, Table ABC Biological Results, read-out: CL rating
Description: as §1
Bioassays on CL were conducted using a 128-well diet tray assay. one to five second instar CL larvae were placed in each well (3 mL) of the diet tray that had been previously filled with 1 mL of artificial diet to which 50 μg/cm^2 of the test molecule (dissolved in 50 μL of 90:10 acetone-water mixture) had been applied (to each of eight wells) and then allowed to dry. Trays were covered with a clear self-adhesive cover and held at 25° C., 14:10 light-dark for five to seven days. Percent mortality was recorded for the larvae in each well; activity in the eight wells was then averaged. The results are indicated in the table entitled “Table ABC: Biological Results” (See Table Section).
as §2

| Compound | pest or weed control at 50 µg/cm2 [1] [%] | YFM rating [2] | pest or weed control at 50 µg/cm2 [3] [%] |
| --- | --- | --- | --- |
| C[C@H](NC(=O)CC(F)(F)F)NC(=O)c1ccc(/C(F)=C/C(c2cc(Br)cc(Br)c2)C(F)(F)F)cc1C(F)(F)F (stereo partly drawn) [F22, 4-((Z)-3-(3,5-Dibromophenyl)-1,4,4,4-tetrafluorobut-1-en-1-yl)-2-(trifluoromethyl)-N—((R)-1-(3,3,3-trifluoropropanamido)ethyl)benzamide] | 50 to 100 | A (80-100) | 50 to 100 |
| C[C@H](NC(=O)CCC(F)(F)F)NC(=O)c1ccc(/C(F)=C/C(c2cc(Br)cc(Br)c2)C(F)(F)F)cc1C(F)(F)F (stereo partly drawn) [F23, 4-((Z)-3-(3,5-Dibromophenyl)-1,4,4,4-tetrafluorobut-1-en-1-yl)-N—((R)-1-(4,4,4-trifluorobutanamido)ethyl)-2-(trifluoromethyl)benzamide] | 50 to 100 | A (80-100) | 50 to 100 |
| Cc1cc(C(/C=C(\F)c2ccc(C(=O)N[C@H](C)NC(=O)CC(F)(F)F)c(C(F)(F)F)c2)C(F)(F)F)cc(C)c1Cl (stereo partly drawn) [F24, 4-((Z)-3-(4-Chloro-3,5-dimethylphenyl)-1,4,4,4-tetrafluorobut-1-en-1-yl)-2-(trifluoromethyl)-N—((R)-1-(3,3,3-trifluoropropanamido)ethyl)benzamide] | 50 to 100 | A (80-100) | 50 to 100 |
| Cc1cc(C(/C=C(\F)c2ccc(C(=O)N[C@H](C)NC(=O)CCC(F)(F)F)c(C(F)(F)F)c2)C(F)(F)F)cc(C)c1Cl (stereo partly drawn) [F25, 4-((Z)-3-(4-Chloro-3,5-dimethylphenyl)-1,4,4,4-tetrafluorobut-1-en-1-yl)-N—((R)-1-(4,4,4-trifluorobutanamido)ethyl)-2-(trifluoromethyl)benzamide] | 50 to 100 | A (80-100) | 50 to 100 |
| C[C@H](NC(=O)CC(F)(F)F)NC(=O)c1ccc(/C(F)=C/C(c2cc(Br)c(Cl)c(Br)c2)C(F)(F)F)cc1C(F)(F)F (stereo partly drawn) [F26, 4-((Z)-3-(3,5-Dibromo-4-chlorophenyl)-1,4,4,4-tetrafluorobut-1-en-1-yl)-2-(trifluoromethyl)-N—((R)-1-(3,3,3-trifluoropropanamido)ethyl)benzamide] | 50 to 100 | A (80-100) | 50 to 100 |
| C[C@H](NC(=O)CCC(F)(F)F)NC(=O)c1ccc(/C(F)=C/C(c2cc(Br)c(Cl)c(Br)c2)C(F)(F)F)cc1C(F)(F)F (stereo partly drawn) [F30, 4-((Z)-3-(3,5-Dibromo-4-chlorophenyl)-1,4,4,4-tetrafluorobut-1-en-1-yl)-N—((R)-1-(4,4,4-trifluorobutanamido)ethyl)-2-(trifluoromethyl)benzamide] | 50 to 100 | A (80-100) | 50 to 100 |
| C[C@H](NC(=O)CC(F)(F)F)NC(=O)c1ccc(/C(F)=C/C(c2ccc(Br)c(Br)c2)C(F)(F)F)cc1C(F)(F)F (stereo partly drawn) [F32, 4-((Z)-3-(3,4-Dibromophenyl)-1,4,4,4-tetrafluorobut-1-en-1-yl)-2-(trifluoromethyl)-N—((R)-1-(3,3,3-trifluoropropanamido)ethyl)benzamide] | 50 to 100 | A (80-100) | 50 to 100 |
| C[C@H](NC(=O)CC(F)(F)F)NC(=O)c1ccc(/C(F)=C/C(c2cc(Cl)cc(Br)c2)C(F)(F)F)cc1C(F)(F)F (stereo partly drawn) [F36, 4-((Z)-3-(3-Bromo-5-chlorophenyl)-1,4,4,4-tetrafluorobut-1-en-1-yl)-2-(trifluoromethyl)-N—((R)-1-(3,3,3-trifluoropropanamido)ethyl)benzamide] | 50 to 100 | A (80-100) | 50 to 100 |
| C[C@H](NC(=O)CCC#N)NC(=O)c1ccc(/C(F)=C/C(c2cc(Cl)c(Cl)c(Cl)c2)C(F)(F)F)cc1C(F)(F)F (stereo partly drawn) [F41, N—((R)-1-(3-Cyanopropanamido)ethyl)-4-((Z)-1,4,4,4-tetrafluoro-3-(3,4,5-trichlorophenyl)but-1-en-1-yl)-2-(trifluoromethyl)benzamide] | 50 to 100 | A (80-100) | 50 to 100 |
| C[C@H](NC(=O)CC(F)(F)F)NC(=O)c1ccc(/C(F)=C/C(c2cc(Cl)c(Cl)c(Cl)c2)C(F)(F)F)c2ccccc12 (stereo partly drawn) [PF1, 4-((Z)-1,4,4,4-Tetrafluoro-3-(3,4,5-trichlorophenyl)but-1-en-1-yl)-N—((R)-1-(3,3,3-trifluoropropanamido)ethyl)-1-naphthamide] | 50 to 100 | B (More than 0-Less than 80) | 50 to 100 |
| C[C@H](NC(=O)CC(F)(F)F)NC(=O)c1ccc(/C(F)=C/C(c2ccc(Cl)c(F)c2)C(F)(F)F)cc1C(F)(F)F (stereo partly drawn) [PF2, 4-((Z)-3-(4-Chloro-3-fluorophenyl)-1,4,4,4-tetrafluorobut-1-en-1-yl)-2-(trifluoromethyl)-N—((R)-1-(3,3,3-trifluoropropanamido)ethyl)benzamide] | 50 to 100 | A (80-100) | 50 to 100 |
| C[C@H](NC(=O)CCC(F)(F)F)NC(=O)c1ccc(/C(F)=C/C(c2ccc(F)c(Cl)c2)C(F)(F)F)cc1C(F)(F)F (stereo partly drawn) [PF3, 4-((Z)-3-(3-Chloro-4-fluorophenyl)-1,4,4,4-tetrafluorobut-1-en-1-yl)-N—((R)-1-(4,4,4-trifluorobutanamido)ethyl)-2-(trifluoromethyl)benzamide] | 50 to 100 | B (More than 0-Less than 80) | 50 to 100 |
| Cc1cc(C(/C=C(\F)c2ccc(C(=O)N[C@H](C)NC(=O)CC(F)(F)F)c(C(F)(F)F)c2)C(F)(F)F)cc(Cl)c1Cl (stereo partly drawn) [PF4, 4-((Z)-3-(3,4-Dichloro-5-methylphenyl)-1,4,4,4-tetrafluorobut-1-en-1-yl)-2-(trifluoromethyl)-N—((R)-1-(3,3,3-trifluoropropanamido)ethyl)benzamide] | 50 to 100 | B (More than 0-Less than 80) | 50 to 100 |

— patent US9924716B2, “Molecules having pesticidal utility, and intermediates, compositions, and processes, related thereto” (Dow AgroSciences LLC, priority 2016, dated 2018)
